Measured values taken from ChEMBL document CHEMBL1141442, “Structure elucidation of a dihydropyranone from Tapinanthus dodoneifolius” (J Nat Prod, 2007).

Organism: Rattus norvegicus
Test: Vasorelaxant effect on norepinephrine induced-contraction in Wistar rat aortic rings
Format: functional, organism-based
Settings: Aorta

IC50: 81.4 µM
SMILES: O=C1C=CC[C@H](C[C@@H](O)CCc2ccc(O)cc2)O1
